We go through 50 molecules from PMC12621200, “Giving an Enzyme Scissors: Serotonin Derivatives as Potent Organocatalytic Switches for DNA Repair Enzyme OGG1” (Journal of Medicinal Chemistry, 2025).

This assay addresses T1, OGG1 (Homo sapiens, UniProt O15527).
T1 construct: made in house
Kind of assay: Biochemical fluorescence (fluorophore-quencher) assay of OGG1 incision rate, 8-oxoA substrate. The settings on record: for AC50 / AC50 (CI95%): concentration giving 50% of the incision rate of OGG1 with APE1 (2 nM) control; for AC50: read-out: AC50 (CI95%).

Structures are written as SMILES.

T1 sequence (O15527 whole entry): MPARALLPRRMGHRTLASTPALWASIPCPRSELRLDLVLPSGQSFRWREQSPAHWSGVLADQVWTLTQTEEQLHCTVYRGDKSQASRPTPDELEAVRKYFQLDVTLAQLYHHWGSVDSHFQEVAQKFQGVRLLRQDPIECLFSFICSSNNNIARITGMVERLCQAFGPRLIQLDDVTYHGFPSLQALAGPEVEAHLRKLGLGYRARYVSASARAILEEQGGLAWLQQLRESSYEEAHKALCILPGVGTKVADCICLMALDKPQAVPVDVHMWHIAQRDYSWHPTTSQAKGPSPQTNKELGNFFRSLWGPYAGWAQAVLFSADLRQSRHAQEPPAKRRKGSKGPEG

One may read the AC50 as the midpoint of the concentration-response curve, whichever way the signal moves. Consider `NCCc1c(-c2cccnc2)[nH]c2ccccc12` [Compound 1, 2-(2-(Pyridin-3-yl)-1H-indol-3-yl)-ethan-1-amine], for which the AC50 was 4.1 µM.

With `Cc1ccc2[nH]c(-c3cccnc3)c(CCN)c2c1` [Compound 2, 2-(5-Methyl-2-(pyridin-3-yl)-1H-indol-3-yl)-ethan-1-amine], the “AC50 (CI95%)” value is “inactive”. Still for that read-out and setting: for `COc1ccc2[nH]c(-c3cccnc3)c(CCN)c2c1` [Compound 3, 2-(5-Methoxy-2-(pyridin-3-yl)-1H-indol-3-yl)-ethan-1-amine] the value was “inactive”. Take `NCCc1c(-c2cccnc2)[nH]c2ccc(Cl)cc12` [Compound 4, 2-(5-Chloro-2-(pyridin-3-yl)-1H-indol-3-yl)-ethan-1-amine]: the “AC50 (CI95%)” value is “inactive”. Still for that read-out and setting: for `Cc1cccc2c(CCN)c(-c3cccnc3)[nH]c12` [Compound 5, 2-(7-Methyl-2-(pyridin-3-yl)-1H-indol-3-yl)-ethan-1-amine] the value was “inactive”. Regarding `NC(Cc1c(-c2cccnc2)[nH]c2ccccc12)C(=O)O` (stereo not shown) [Compound 6, 2-Amino-3-(2-(pyridin-3-yl)-1H-indol-3-yl)-propanoic Acid], the “OGG1 activation, SAR result in words” value is “abolished activity” and the “AC50 (CI95%)” value is “inactive”.

As to `NCCc1c(-c2ccccc2)[nH]c2ccccc12` [Compound 7, 2-Phenyltryptamine], the “OGG1 activation, SAR result in words” value is listed as “complete loss of activity” and the “AC50 (CI95%)” value was “inactive”. For `NCCc1c(-c2ccccc2)[nH]c2ccc(O)cc12` [Compound 8, 5-Hydroxy-2-phenyltryptamine], the “OGG1 activation, SAR result in words” value was “showed potency” and the AC50 came out at 4 µM.

With `NCCc1c(-c2ccccc2)[nH]c2cc(F)ccc12` [Compound 9, 6-Fluoro-2-phenyltryptamine], the “AC50 (CI95%)” value is “inactive”. For `c1cncc(-c2cc3ccccc3[nH]2)c1` [Compound 10, 2-(Pyridin-3-yl)-1H-indole], the AC50 came out at 1.7 µM. Still for that read-out and setting: as for `Cc1ccc2[nH]c(-c3cccnc3)cc2c1` [Compound 11, 5-Methyl-2-(pyridin-3-yl)-1H-indole], the figure is 5.7 µM. `Fc1ccc2[nH]c(-c3cccnc3)cc2c1` [Compound 12, 5-Fluoro-2-(pyridin-3-yl)-1H-indole]: the AC50 was found to be 1.9 µM. On to `Brc1ccc2[nH]c(-c3cccnc3)cc2c1` [Compound 13, 5-Bromo-2-(pyridin-3-yl)-1H-indole], for which the AC50 amounted to 1 µM. As to `COc1ccc2[nH]c(-c3cccnc3)cc2c1` [Compound 14, 5-Methoxy-2-(pyridin-3-yl)-1H-indole], the AC50 is 13 µM.

Turning to `Oc1ccc2[nH]c(-c3cccnc3)cc2c1` [Compound 15, 2-(Pyridin-3-yl)-1H-indol-5-ol], the AC50 is 6 µM. As for `Fc1cncc(-c2cc3ccccc3[nH]2)c1` [Compound 16, 2-(5-Fluoropyridin-3-yl)-1H-indole], the AC50 came out at 1.4 µM. Regarding `Fc1ccc(-c2cc3ccccc3[nH]2)cn1` [Compound 17, 2-(6-Fluoropyridin-3-yl)-1H-indole], the “AC50 (CI95%)” value was “inactive”. As to `Nc1cncc(-c2cc3ccccc3[nH]2)c1` [Compound 18], the AC50 is over 100 µM. In the case of `Nc1ccc(-c2cc3ccccc3[nH]2)cn1` [Compound 19, 5-(1H-Indol-2-yl)-pyridin-2-amine], the AC50 turned out to be 9.3 µM. As to `Oc1cncc(-c2cc3ccccc3[nH]2)c1` [Compound 20, 5-(1H-Indol-2-yl)-pyridin-3-ol], the AC50 was 2.8 µM. `Oc1ccc(-c2cc3ccccc3[nH]2)cn1` [Compound 21, 5-(1H-Indol-2-yl)-pyridin-2-ol]: the “AC50 (CI95%)” value was “inactive”. Take `Clc1ccc(-c2cc3ccccc3[nH]2)cn1` [Compound 22, 2-(6-Chloropyridin-3-yl)-1H-indole]: the “AC50 (CI95%)” value was “inactive”. Consider `Cc1ccc(-c2cc3ccccc3[nH]2)cn1` [Compound 23, 2-(6-Methylpyridin-3-yl)-1H-indole], for which the AC50 stood at 14 µM.

With `c1ccc2[nH]c(-c3ccncc3)cc2c1` [Compound 24, (2-Pyridin-4-yl)-1H-indole], the “OGG1 activation, SAR result in words” value is recorded as “not tolerated” and the “AC50 (CI95%)” value was “inactive”. The matching figures for `c1ccc2[nH]c(-c3cncnc3)cc2c1` [Compound 25, 2-(Pyrimidin-5-yl)-1H-indole]: “not tolerated” and “inactive”. Turning to `c1ccc2[nH]c(-c3cnc4[nH]ccc4c3)cc2c1` [Compound 26, 5-(1H-Indol-2-yl)-1H-pyrrolo[2,3-b]-pyridine], the AC50 amounted to 1.4 µM. Consider `c1ccc2ncc(-c3cc4ccccc4[nH]3)cc2c1` [Compound 27, 3-(1H-Indol-2-yl)-quinoline], for which the “OGG1 activation, SAR result in words” value was “not tolerated” and the “AC50 (CI95%)” value is “inactive”. As for `c1cncc(-c2cc3ccccc3o2)c1` [Compound 28, 3-(Benzofuran-2-yl)-pyridine], the AC50 was 4.1 µM. Take `NCCc1c(-c2cccnc2)[nH]c2cc(O)ccc12` [Compound 31, 3-(2-Aminoethyl)-2-(pyridin-3-yl)-1H-indol-6-ol]: the “AC50 (CI95%)” value is “inactive”.

As to `NCCc1c(-c2cccnc2)[nH]c2c(O)cccc12` [Compound 32, 3-(2-Aminoethyl)-2-(pyridin-3-yl)-1H-indol-7-ol], the “AC50 (CI95%)” value is “inactive”. Still for that read-out and setting: as for `NCCc1c(-c2cccnc2)[nH]c2cccc(O)c12` [Compound 33, 3-(2-Aminoethyl)-2-(pyridin-3-yl)-1H-indol-4-ol], the entry is “inactive”. On to `NCCc1c(-c2cccnc2)[nH]c2ccc(F)cc12` [Compound 34, 2-(5-Fluoro-2-(pyridin-3-yl)-1H-indol-3-yl)-ethan-1-amine], for which the “OGG1 activation, SAR result in words” value is given as “tolerated” and the AC50 worked out at 6.4 µM. Regarding `NCCc1c(-c2cccnc2)[nH]c2cc(F)ccc12` [Compound 35, 2-(6-Fluoro-2-(pyridin-3-yl)-1H-indol-3-yl)-ethan-1-amine], the “OGG1 activation, SAR result in words” value is on record as “tolerated” and the AC50 is 5.3 µM. For `NCCc1c(-c2cccnc2)[nH]c2ccc(N)cc12` [Compound 36, 3-(2-Aminoethyl)-2-(pyridin-3-yl)-1H-indol-5-amine], the “OGG1 activation, SAR result in words” value is listed as “not tolerated” and the “AC50 (CI95%)” value was “inactive”.

`NCCc1c(-c2cccnc2)[nH]c2ccc(C(=O)O)cc12` [Compound 37, 3-(2-Aminoethyl)-2-(pyridin-3-yl)-1H-indole-5-carboxylic Acid]: the “OGG1 activation, SAR result in words” value is given as “not tolerated” and the “AC50 (CI95%)” value is “inactive”. With `NCc1c(-c2cccnc2)[nH]c2ccc(O)cc12` [Compound 39, 3-(Aminomethyl)-2-(pyridin-3-yl)-1H-indol-5-ol], the “OGG1 activation, SAR result in words” value is “not tolerated” and the “AC50 (CI95%)” value is “inactive”. `NCCCc1c(-c2cccnc2)[nH]c2ccc(O)cc12` [Compound 40, 3-(3-Aminopropyl)-2-(pyridin-3-yl)-1H-indol-5-ol]: the “OGG1 activation, SAR result in words” value was “not tolerated” and the “AC50 (CI95%)” value is “inactive”. In the case of `NCCc1c(-c2ccccn2)[nH]c2ccc(O)cc12` [Compound 42, 3-(2-Aminoethyl)-2-(pyridin-2-yl)-1H-indol-5-ol], the “OGG1 activation, SAR result in words” value was “lost activity” and the “AC50 (CI95%)” value was “inactive”. `NCCc1c(-c2ccncc2)[nH]c2ccc(O)cc12` [Compound 43, 3-(2-Aminoethyl)-2-(pyridin-4-yl)-1H-indol-5-ol]: the “OGG1 activation, SAR result in words” value is given as “lost activity” and the “AC50 (CI95%)” value was “inactive”.

Consider `NCCc1c(-c2cncnc2)[nH]c2ccc(O)cc12` [Compound 44, 3-(2-Aminoethyl)-2-(pyrimidin-5-yl)-1H-indol-5-ol], for which the “OGG1 activation, SAR result in words” value is given as “slight increase in activity” and the AC50 turned out to be 0.25 µM.

As to `NCCc1c(-c2cncs2)[nH]c2ccc(O)cc12` [Compound 45, 3-(2-Aminoethyl)-2-(thiazol-5-yl)-1H-indol-5-ol], the “OGG1 activation, SAR result in words” value is “slight increase in activity” and the AC50 was 0.4 µM. In the case of `CNCCc1c(-c2cccnc2)[nH]c2ccc(O)cc12` [Compound 46, 3-(2-(Methylamino)-ethyl)-2-(pyridin-3-yl)-1H-indol-5-ol], the half-maximal activity concentration (AC50) came out at 0.29 µM. `OCCc1c(-c2cccnc2)[nH]c2ccc(O)cc12` [Compound 47, 3-(2-Hydroxyethyl)-2-(pyridin-3-yl)-1H-indol-5-ol]: the AC50 was found to be 8.7 µM. Also, the decrease of activity (ethanol derivative versus amine 30) is reported as about 10 fold. As to `Cn1c(-c2cccnc2)c(CCN)c2cc(O)ccc21` [Compound 48, 3-(2-Aminoethyl)-1-methyl-2-(pyridin-3-yl)-1H-indol-5-ol], the “OGG1 activation, SAR result in words” value is “attenuated activity” and the “AC50 (CI95%)” value is “inactive”.

`NCCc1cncc(-c2cc3cc(O)ccc3[nH]2)c1` [Compound 49, 2-(5-(2-Aminoethyl)-pyridin-3-yl)-1H-indol-5-ol]: the “AC50 (CI95%)” value is “inactive”. For the molecule `NCCc1[nH]c2ccccc2c1-c1cccnc1` [Compound 50, 2-(3-(Pyridin-3-yl)-1H-indol-2-yl)-ethan-1-amine], the AC50 stood at 28 µM. Regarding `NCCc1[nH]c2ccc(O)cc2c1-c1cccnc1` [Compound 51, 2-(2-Aminoethyl)-3-(pyridin-3-yl)-1H-indol-5-ol], the “AC50 (CI95%)” value is “inactive”. Consider `NCCc1[nH]c2cc(F)c(O)cc2c1-c1cccnc1` [Compound 52, 2-(2-Aminoethyl)-6-fluoro-3-(pyridin-3-yl)-1H-indol-5-ol], for which the “OGG1 activation, SAR result in words” value was “some residual activity” and the AC50 was determined as 8.5 µM. As for `NCCc1[nH]c2ccc(O)cc2c1-c1cncnc1` [Compound 53, 2-(2-Aminoethyl)-3-(pyrimidin-5-yl)-1H-indol-5-ol], the “OGG1 activation, SAR result in words” value is given as “some residual activity” and the AC50 is 12 µM. As to `O=C(O)c1cccc(NC(C(=O)c2ccccc2)c2ccccc2)c1` (stereo not shown) [NSC 4232], the “AC50 (μM)” value (biochemical assay of virtual screening hits (NCI samples), Table S1) was “inactive”.
